# Key:
# Test in all cases: KINOMEscan competition binding
# Details in all cases: compound 1.0 µM
# STK33 (human) = STK33 (human) (UniProt Q9BYT3)
# TXK (human) = TXK (human) (UniProt P42681)
# ADCK4 (human) = ADCK4 (human) (UniProt Q96D53)
# MLTK (human) = MLTK (human) (UniProt Q9NYL2)
# TIE1 (human) = TIE1 (human) (UniProt P35590)
# STK24 (human) = STK24 (human) (UniProt Q9Y6E0)
# ACVR1B (human) = ACVR1B (human) (UniProt P36896)
# HUNK (human) = HUNK (human) (UniProt P57058)
# DMPK (human) = DMPK (human) (UniProt Q09013)
# Chain of DMPK (human) (Q09013 whole entry, looked up): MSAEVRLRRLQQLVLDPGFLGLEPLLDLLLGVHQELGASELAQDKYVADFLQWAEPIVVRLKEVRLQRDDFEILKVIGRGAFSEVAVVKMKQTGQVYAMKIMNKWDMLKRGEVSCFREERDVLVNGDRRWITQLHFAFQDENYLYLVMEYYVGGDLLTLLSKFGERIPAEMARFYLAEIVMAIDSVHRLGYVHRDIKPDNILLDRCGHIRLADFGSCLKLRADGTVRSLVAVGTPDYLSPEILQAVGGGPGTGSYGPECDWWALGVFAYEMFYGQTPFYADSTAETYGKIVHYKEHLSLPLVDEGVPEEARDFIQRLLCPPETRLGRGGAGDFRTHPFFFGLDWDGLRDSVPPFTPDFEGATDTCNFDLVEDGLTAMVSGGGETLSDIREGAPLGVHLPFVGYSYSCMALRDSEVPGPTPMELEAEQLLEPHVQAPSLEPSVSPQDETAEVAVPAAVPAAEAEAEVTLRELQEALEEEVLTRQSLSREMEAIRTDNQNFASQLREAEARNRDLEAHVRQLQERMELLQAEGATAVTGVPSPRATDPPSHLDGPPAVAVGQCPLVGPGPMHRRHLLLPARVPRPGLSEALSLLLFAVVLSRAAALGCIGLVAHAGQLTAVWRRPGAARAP
# CDK4 CCND3 (human) = CDK4 CCND3 (human) (UniProt P11802+P30281)
# Chain of CDK4 CCND3 (human) (P11802 whole entry, looked up): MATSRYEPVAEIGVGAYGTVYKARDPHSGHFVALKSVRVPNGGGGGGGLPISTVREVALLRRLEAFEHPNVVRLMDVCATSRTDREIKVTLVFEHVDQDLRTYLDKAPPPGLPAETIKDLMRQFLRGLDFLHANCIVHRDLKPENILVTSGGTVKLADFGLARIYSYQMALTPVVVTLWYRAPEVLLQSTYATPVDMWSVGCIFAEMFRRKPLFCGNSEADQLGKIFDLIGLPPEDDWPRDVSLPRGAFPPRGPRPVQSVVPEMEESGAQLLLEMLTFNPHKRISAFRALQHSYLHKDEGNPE
# Chain of CDK4 CCND3 (human) (P30281 whole entry, looked up): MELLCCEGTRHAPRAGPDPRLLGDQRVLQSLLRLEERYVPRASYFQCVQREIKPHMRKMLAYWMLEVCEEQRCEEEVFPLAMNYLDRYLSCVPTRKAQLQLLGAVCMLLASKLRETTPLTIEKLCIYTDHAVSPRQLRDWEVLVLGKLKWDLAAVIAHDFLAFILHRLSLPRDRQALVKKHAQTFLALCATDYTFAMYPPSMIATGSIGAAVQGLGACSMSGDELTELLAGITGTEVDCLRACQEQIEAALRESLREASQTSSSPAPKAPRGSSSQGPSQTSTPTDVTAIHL
# MAP3K6 (human) = MAP3K6 (human) (UniProt O95382)
# SGK3 (human) = SGK3 (human) (UniProt Q96BR1)
# Chain of SGK3 (human) (Q96BR1 whole entry, looked up): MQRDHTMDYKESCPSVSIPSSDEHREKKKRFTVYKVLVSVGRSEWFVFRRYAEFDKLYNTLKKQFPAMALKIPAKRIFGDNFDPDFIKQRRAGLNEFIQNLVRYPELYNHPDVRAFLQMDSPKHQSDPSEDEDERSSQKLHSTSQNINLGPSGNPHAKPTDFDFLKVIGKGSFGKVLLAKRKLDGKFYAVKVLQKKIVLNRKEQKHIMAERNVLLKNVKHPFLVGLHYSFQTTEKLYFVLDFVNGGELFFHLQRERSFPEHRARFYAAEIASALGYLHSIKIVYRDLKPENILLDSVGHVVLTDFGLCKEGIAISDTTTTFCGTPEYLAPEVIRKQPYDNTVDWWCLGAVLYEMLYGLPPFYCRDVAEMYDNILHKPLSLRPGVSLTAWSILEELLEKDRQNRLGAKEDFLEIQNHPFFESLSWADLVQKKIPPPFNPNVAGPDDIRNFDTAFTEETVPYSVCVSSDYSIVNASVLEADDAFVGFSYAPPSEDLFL
# MAPK12 (human) = MAPK12 (human) (UniProt P53778)
# CSNK1A1 (human) = CSNK1A1 (human) (UniProt P48729)
# ERBB4 (human) = ERBB4 (human) (UniProt Q15303)
# CSNK1A1L (human) = CSNK1A1L (human) (UniProt Q8N752)
# LRRK2 (human) = LRRK2 (human) (UniProt Q5S007)
# ERBB2 (human) = ERBB2 (human) (UniProt P04626)
# MST4 (human) = MST4 (human) (UniProt Q9P289)
# Chain of MST4 (human) (Q9P289 whole entry, looked up): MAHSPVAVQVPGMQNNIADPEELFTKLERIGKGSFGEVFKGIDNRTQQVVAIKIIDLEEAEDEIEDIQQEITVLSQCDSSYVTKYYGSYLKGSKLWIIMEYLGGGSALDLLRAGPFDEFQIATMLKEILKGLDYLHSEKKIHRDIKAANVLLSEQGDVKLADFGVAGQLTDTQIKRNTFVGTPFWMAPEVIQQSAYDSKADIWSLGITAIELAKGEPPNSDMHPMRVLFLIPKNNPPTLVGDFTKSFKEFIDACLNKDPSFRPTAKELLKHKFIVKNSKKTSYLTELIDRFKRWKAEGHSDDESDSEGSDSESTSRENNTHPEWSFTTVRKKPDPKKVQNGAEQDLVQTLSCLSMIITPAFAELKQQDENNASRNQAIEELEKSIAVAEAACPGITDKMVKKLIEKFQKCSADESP
# HCK (human) = HCK (human) (UniProt P08631)
# EPHA5 (human) = EPHA5 (human) (UniProt P54756)
# EPHB1 (human) = EPHB1 (human) (UniProt P54762)
# NEK11 (human) = NEK11 (human) (UniProt Q8NG66)
# HIPK2 (human) = HIPK2 (human) (UniProt Q9H2X6)
# FLT4 (human) = FLT4 (human) (UniProt P35916)
# [1] = test system: RET (human), P07949 [M918T]
# TLK2 (human) = TLK2 (human) (UniProt Q86UE8)
# ULK3 (human) = ULK3 (human) (UniProt Q6PHR2)
# OXSR1 (human) = OXSR1 (human) (UniProt O95747)
# Chain of OXSR1 (human) (O95747 whole entry, looked up): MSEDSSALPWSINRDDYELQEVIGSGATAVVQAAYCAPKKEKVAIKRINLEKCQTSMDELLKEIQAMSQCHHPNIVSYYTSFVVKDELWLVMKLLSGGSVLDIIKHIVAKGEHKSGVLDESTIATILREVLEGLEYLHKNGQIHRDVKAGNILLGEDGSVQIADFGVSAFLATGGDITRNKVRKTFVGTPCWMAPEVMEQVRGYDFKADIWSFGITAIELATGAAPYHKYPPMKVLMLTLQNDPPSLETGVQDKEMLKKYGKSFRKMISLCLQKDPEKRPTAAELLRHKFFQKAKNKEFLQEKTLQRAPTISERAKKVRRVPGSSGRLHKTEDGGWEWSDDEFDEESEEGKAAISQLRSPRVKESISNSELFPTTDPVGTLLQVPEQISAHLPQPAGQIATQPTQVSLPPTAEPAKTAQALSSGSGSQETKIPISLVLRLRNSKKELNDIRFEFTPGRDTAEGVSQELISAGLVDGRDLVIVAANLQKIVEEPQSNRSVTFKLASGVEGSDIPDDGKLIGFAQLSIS
# PTK2 (human) = PTK2 (human) (UniProt Q05397)
# CaMK1 (human) = CaMK1 (human) (UniProt Q14012)
# PRKCE (human) = PRKCE (human) (UniProt Q02156)
# Chain of PRKCE (human) (Q02156 whole entry, looked up): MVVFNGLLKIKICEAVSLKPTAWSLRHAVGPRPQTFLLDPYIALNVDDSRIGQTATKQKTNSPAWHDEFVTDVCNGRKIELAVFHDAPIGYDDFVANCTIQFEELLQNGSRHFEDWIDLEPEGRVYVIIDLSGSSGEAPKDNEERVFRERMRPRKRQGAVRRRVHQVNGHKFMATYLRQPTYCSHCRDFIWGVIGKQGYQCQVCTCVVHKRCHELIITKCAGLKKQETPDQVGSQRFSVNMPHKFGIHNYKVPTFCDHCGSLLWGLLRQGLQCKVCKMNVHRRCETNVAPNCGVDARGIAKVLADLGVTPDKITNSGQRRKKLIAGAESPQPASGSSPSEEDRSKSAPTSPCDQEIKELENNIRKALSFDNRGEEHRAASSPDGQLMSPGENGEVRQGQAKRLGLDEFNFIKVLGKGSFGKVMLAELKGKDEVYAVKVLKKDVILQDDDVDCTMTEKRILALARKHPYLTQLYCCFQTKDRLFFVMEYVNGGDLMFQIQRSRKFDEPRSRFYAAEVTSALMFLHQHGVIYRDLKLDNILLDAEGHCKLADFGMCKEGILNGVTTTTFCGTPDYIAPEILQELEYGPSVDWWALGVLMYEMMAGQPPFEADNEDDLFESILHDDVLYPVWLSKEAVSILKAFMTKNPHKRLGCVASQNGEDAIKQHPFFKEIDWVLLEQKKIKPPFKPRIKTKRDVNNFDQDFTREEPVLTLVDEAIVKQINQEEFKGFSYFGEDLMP
# EPHB6 (human) = EPHB6 (human) (UniProt O15197)
# EIF2AK2 (human) = EIF2AK2 (human) (UniProt P19525)
# Chain of EIF2AK2 (human) (P19525 whole entry, looked up): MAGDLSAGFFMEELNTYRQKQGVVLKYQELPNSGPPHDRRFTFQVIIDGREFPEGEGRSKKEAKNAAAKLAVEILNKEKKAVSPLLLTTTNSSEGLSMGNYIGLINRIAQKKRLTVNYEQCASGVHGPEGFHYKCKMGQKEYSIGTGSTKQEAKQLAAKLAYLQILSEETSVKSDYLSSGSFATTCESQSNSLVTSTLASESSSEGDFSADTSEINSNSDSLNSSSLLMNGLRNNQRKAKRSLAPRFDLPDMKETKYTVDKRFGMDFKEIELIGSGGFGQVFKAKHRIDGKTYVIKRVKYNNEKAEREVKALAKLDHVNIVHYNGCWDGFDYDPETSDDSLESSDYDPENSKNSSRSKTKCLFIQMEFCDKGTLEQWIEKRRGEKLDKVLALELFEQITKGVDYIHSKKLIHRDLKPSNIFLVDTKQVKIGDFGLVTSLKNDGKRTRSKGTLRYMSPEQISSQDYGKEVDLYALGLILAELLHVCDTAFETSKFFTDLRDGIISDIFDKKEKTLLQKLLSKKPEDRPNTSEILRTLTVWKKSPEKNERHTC
# [2] = test system: EGFR (human), P00533 [G719C]
# CHEK2 (human) = CHEK2 (human) (UniProt O96017)
# EPHA4 (human) = EPHA4 (human) (UniProt P54764)
# STK32B (human) = STK32B (human) (UniProt Q9NY57)
# Chain of STK32B (human) (Q9NY57 whole entry, looked up): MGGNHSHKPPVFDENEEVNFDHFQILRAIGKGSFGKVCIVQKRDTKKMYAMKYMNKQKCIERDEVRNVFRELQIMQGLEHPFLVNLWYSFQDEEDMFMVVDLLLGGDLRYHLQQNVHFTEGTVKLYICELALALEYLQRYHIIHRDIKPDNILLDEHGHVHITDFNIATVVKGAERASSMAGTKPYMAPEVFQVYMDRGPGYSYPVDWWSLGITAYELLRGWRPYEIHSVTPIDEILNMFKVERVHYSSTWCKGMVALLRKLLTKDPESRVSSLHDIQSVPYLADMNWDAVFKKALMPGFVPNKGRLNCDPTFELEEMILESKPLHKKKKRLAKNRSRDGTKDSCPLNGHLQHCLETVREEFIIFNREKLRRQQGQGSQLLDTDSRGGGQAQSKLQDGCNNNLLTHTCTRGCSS
# [3] = test system: PIK3CA (human), P42336 [I800L]
# MAPK14 (human) = MAPK14 (human) (UniProt Q16539)
# PIK3C2G (human) = PIK3C2G (human) (UniProt O75747)
# TAOK1 (human) = TAOK1 (human) (UniProt Q7L7X3)
# CIT (human) = CIT (human) (UniProt O14578)
# Chain of ADCK4 (human) (Q96D53 whole entry, looked up): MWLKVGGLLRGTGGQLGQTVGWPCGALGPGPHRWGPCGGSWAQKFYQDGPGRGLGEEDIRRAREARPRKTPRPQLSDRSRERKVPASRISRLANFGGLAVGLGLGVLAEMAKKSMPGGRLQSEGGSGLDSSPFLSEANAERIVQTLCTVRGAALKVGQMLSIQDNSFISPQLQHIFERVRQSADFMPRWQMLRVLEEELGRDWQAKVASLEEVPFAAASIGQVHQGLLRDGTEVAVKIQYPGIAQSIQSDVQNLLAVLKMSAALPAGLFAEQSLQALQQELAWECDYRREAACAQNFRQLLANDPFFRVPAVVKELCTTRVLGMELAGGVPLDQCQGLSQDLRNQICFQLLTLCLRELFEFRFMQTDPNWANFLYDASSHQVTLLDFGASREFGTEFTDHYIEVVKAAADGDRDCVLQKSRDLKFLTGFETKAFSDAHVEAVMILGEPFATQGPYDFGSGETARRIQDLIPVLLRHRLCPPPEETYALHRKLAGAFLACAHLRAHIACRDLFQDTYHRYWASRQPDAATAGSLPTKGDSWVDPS
smiles,measurement,setting,value
COCCNCCCn1c(C(=O)CF)c(-c2ccc(C)cc2)c2c(N)ncnc21,"kinase still bound, per cent of control",STK33 (human),100%
same,"kinase still bound, per cent of control",TXK (human),100%
same,"kinase still bound, per cent of control",ADCK4 (human),93%
same,"kinase still bound, per cent of control",MLTK (human),100%
same,"kinase still bound, per cent of control",TIE1 (human),100%
same,"kinase still bound, per cent of control",STK24 (human),78%
same,"kinase still bound, per cent of control",ACVR1B (human),91%
same,"kinase still bound, per cent of control",HUNK (human),100%
same,"kinase still bound, per cent of control",DMPK (human),84%
same,"kinase still bound, per cent of control",CDK4 CCND3 (human),100%
same,"kinase still bound, per cent of control",MAP3K6 (human),100%
same,"kinase still bound, per cent of control",SGK3 (human),79%
same,"kinase still bound, per cent of control",MAPK12 (human),100%
same,"kinase still bound, per cent of control",CSNK1A1 (human),100%
same,"kinase still bound, per cent of control",ERBB4 (human),100%
same,"kinase still bound, per cent of control",CSNK1A1L (human),100%
same,"kinase still bound, per cent of control",LRRK2 (human),100%
same,"kinase still bound, per cent of control",ERBB2 (human),100%
same,"kinase still bound, per cent of control",MST4 (human),69%
same,"kinase still bound, per cent of control",HCK (human),100%
same,"kinase still bound, per cent of control",EPHA5 (human),91%
same,"kinase still bound, per cent of control",EPHB1 (human),94%
same,"kinase still bound, per cent of control",NEK11 (human),63%
same,"kinase still bound, per cent of control",HIPK2 (human),94%
same,"kinase still bound, per cent of control",FLT4 (human),98%
same,"kinase still bound, per cent of control",[1],100%
same,"kinase still bound, per cent of control",TLK2 (human),95%
same,"kinase still bound, per cent of control",ULK3 (human),99%
same,"kinase still bound, per cent of control",OXSR1 (human),100%
same,"kinase still bound, per cent of control",PTK2 (human),100%
same,"kinase still bound, per cent of control",CaMK1 (human),100%
same,"kinase still bound, per cent of control",PRKCE (human),100%
same,"kinase still bound, per cent of control",EPHB6 (human),100%
same,"kinase still bound, per cent of control",EIF2AK2 (human),90%
same,"kinase still bound, per cent of control",[2],84%
same,"kinase still bound, per cent of control",CHEK2 (human),100%
same,"kinase still bound, per cent of control",EPHA4 (human),96%
same,"kinase still bound, per cent of control",STK32B (human),98%
same,"kinase still bound, per cent of control",[3],100%
same,"kinase still bound, per cent of control",MAPK14 (human),96%
same,"kinase still bound, per cent of control",PIK3C2G (human),92%
same,"kinase still bound, per cent of control",TAOK1 (human),100%
same,"kinase still bound, per cent of control",CIT (human),93%

# From the kinase profiling compilation of Christmann-Franck et al. (2016)
